Results on 5 compounds are retold here after patent US4978783A, “2,6-dimethoxyhydroquinone-3-mercaptopropionic acid, 2,6-dimethoxyhydroquinone-3-mercaptoacetic acid, and antitumor use thereof” (National Science Council, priority 1990, dated 1990).

Each structure is given as a SMILES string. Converted amounts (≈) assume the structure as drawn. “Also recorded” adds a separate entry of the source.

The test system of data set [1] is Colo-205 (colon adenocarcinoma) cells. The data set is described as follows: Cytotoxicity assay against Colo-205 cells by the MTT method. The conditions noted are these: for CI: 5760 min; for Cytotoxicity index (CI): Table 1, 4 days; for CI value compared with DMQ, in words: versus DMQ. The data set is classed as cell-based, human. The protocol: Four different human cancer cell lines were used in this assay.
(§1) Cell suspensions were trypsinized and disaggregated. 3×10^3 cells were inoculated into each well in 0.18 ml of medium, to which 0.02 ml of drug was added. After 4 days of culture, 0.1 mg of 3-(4,5-dimethylthiazol-2-yl)-2,5-diphenyltetrazolium bromide (MTT) was added to each well and the plate incubated for 4 hours. The medium was then removed, 0.2 ml DMSO was added to each well and the plate agitated for 10 min. The optical density of each well was measured at a 545 nm test wavelength and a 690 nm reference wavelength using a Titertek Multiskan plate reader. Absorbance levers from drug tested cells were corrected against untreated control values.
(§2) *Cytotoxicity index (CI) = 100% × [1(O.D. of treated cells / O.D. o
(Tetrazolium dyes change colour on reduction, which living cells bring about.)

In data set [2] the test system is KB (oral epidermoid carcinoma) cells. The data set is described as follows: Cytotoxicity against KB cells by the MTT method. In kind it is cell-based, human. The conditions noted are these: 5760 min.
Text: (§3) A convenient cytotoxicity assay adopted in this example for the evaluation of antitumor activity is the MTT method disclosed in an article by Twentyman and Luscombe, entitled "A study of some variables in a tetrazolium dye (MTT) based assay for cell growth and chemosensitivity" Br. J. Cancer. 56, 279-285 (1987).
(§4) Four different human cancer cell lines were used in this assay. These were KB (oral epidermoid carcinoma); Colo-205 (colon adenocarcinoma); HeLa (cervical carcinoma); and HEP-2 (larynx epidermoid carcinoma).
as §1, with “Cells were taken from exponential phase cultures and were allowed to grow in a plate containing 96 wells using RPMI-1640 medium supplemented with 5% fetal bovine serum, 1 mM glutamine and antibiotics (penicillin and streptomycin) at 37° C. in a CO2 incubator. Cell” for “Cell”
as §2

Data set [3] has as its system HeLa (cervical carcinoma) cells. Kind of data set: Cytotoxicity against HeLa cells by the MTT method. The data set is classed as cell-based, human. The conditions noted are these: 5760 min.
Text: as §3, §4
as §1, with “Cells were taken from exponential phase cultures and were allowed to grow in a plate containing 96 wells using RPMI-1640 medium supplemented with 5% fetal bovine serum, 1 mM glutamine and antibiotics (penicillin and streptomycin) at 37° C. in a CO2 incubator. Cell” for “Cell”
as §2

In data set [4] the test system is HEP-2 (larynx epidermoid carcinoma) cells. Kind of data set: Cytotoxicity against HEP-2 cells by the MTT method. In kind it is cell-based, human. The conditions noted are these: 5760 min.
Text: as §3, §4
as §1, with “Cells were taken from exponential phase cultures and were allowed to grow in a plate containing 96 wells using RPMI-1640 medium supplemented with 5% fetal bovine serum, 1 mM glutamine and antibiotics (penicillin and streptomycin) at 37° C. in a CO2 incubator. Cell” for “Cell”
as §2

The next data set relates to human tumor cell lines. Kind of data set: Cytotoxicity against four/several human tumor cell lines, (MTT method). In kind it is cell-based. The conditions noted are these: for cytotoxicity at 100 µg/mL: 96 h, each alone, DMQ-MP 1 μg/ml or D-isoascorbic acid 100 μg/ml, read-out: cytotoxicity index (CI) value, summary; for cytotoxicity compared with DMQ, in words: drug without activator, versus DMQ; for cytotoxicity in combination with L-ascorbic acid or D-isoascorbic acid, in words: several human cancer cell lines, in vitro.
Text: as §3, §4
as §1, with “Cells were taken from exponential phase cultures and were allowed to grow in a plate containing 96 wells using RPMI-1640 medium supplemented with 5% fetal bovine serum, 1 mM glutamine and antibiotics (penicillin and streptomycin) at 37° C. in a CO2 incubator. Cell” for “Cell”

The next data set is described as follows: Solubility in H2O. The data set is classed as physicochemical. The conditions noted are these: for solubility: water; for solubility / solubility relative to DMQ (times higher): H2O, 27° C.; for solubility relative to DMQ (times higher): versus DMQ; for water-solubility, in words: compared with DMQ.
The conditions of data set [5]: background statement; cited from earlier work.
The subject of a further data set is Ehrlich ascites. The conditions noted are these: DMQ in combination with L-ascorbic acid; cited from earlier work.
Another data set concerns normal cells. The conditions noted are these: background statement; cited from earlier work.
The conditions of data set [6]: background statement; cited from earlier work. This is another data set of the same source.
The nature of data set [7]: Hydrophobicity (statement). The data set is classed as physicochemical. The conditions noted are these: to gain passage into the cell via the cell membrane.
For data set [8] the following is noted: cited from earlier work.
Where [9] appears, read: Table 2, D-isoascorbic acid 100 μg/ml alone.
Where [10] appears, read: Table 3, DMQ-MA 1 μg/ml + L-ascorbate 100 μg/ml.
Where [11] appears, read: Table 3, DMQ-MA 1 μg/ml, no activator.
Where [12] appears, read: Table 2, DMQ-MP 1 μg/ml + D-isoascorbic acid 100 μg/ml.
Setting [13] is: Table 2, DMQ-MP 1 μg/ml, no activator.
Setting [14] is: Table 3, L-ascorbate 100 μg/ml alone.

For `O=C1O[C@H]([C@H](O)CO)C(O)=C1O` [D-isoascorbic acid, reference compound], the CI was 24% in data set [1] (setting [9]), 11% in data set [2] (setting [9]), 5% in data set [3] (setting [9]) and 13% in data set [4] (setting [9]). In the data set on human tumor cell lines (four human tumor cell lines), the cytotoxicity at 100 µg/mL is below 25%.
Consider `COC1=CC(=O)C=C(OC)C1=O` [DMQ, 2,6-dimethoxy-p-benzoquinone], for which the concentration in solution in “Solubility in H2O” (solubility) was 0.074 mg/mL (≈ 0.44 mM). Also, the “Cytotoxicity index (CI)” value worked out at 76.6% in data set [1] (drug 1.0 μg/ml, L-ascorbate 100 μg/ml) and 87.9% in [1] (drug 10 μg/ml, no L-ascorbate). The “solubility in water, in words” value in data set [5] is listed as “poor solubility in water”. In the data set on Ehrlich ascites, the “effect in Ehrlich ascites-bearing mice, in words” value was “effective”. The “cytotoxicity to normal cells, in words” value in the data set with normal cells is on record as “certain degree of cytotoxicity; also recorded: destruction of normal cells”. For the same compound, the “precipitation from the blood, in words” value in data set [6] is “precipitate from the blood easily”.
Consider `COc1cc(O)c(SCC(=O)O)c(OC)c1O` [DMQ-MA, 2,6-dimethoxyhydroquinone-3-mercaptoacetic acid], for which the “solubility relative to DMQ (times higher)” value in the data set “Solubility in H2O” was “about 70 times”. In “Solubility in H2O”, the “water-solubility, in words” value was “a lot more water-soluble than DMQ; also recorded: significantly improved water-solubility in comparison with DMQ”. For the same compound, the concentration in solution in “Solubility in H2O” (solubility) came to 5 mg/mL (≈ 19.2 mM). Further, the “Cytotoxicity index (CI)” value in [1] (drug 10 μg/ml, L-ascorbate 1.0 μg/ml (so in the source)) was determined as 22.1%. For the same compound, the CI in [1] (setting [10]) is 86%; in data set [1] (setting [11]) it was 0%; in data set [2] (setting [10]) it was 89%; in data set [2] (setting [11]), 0%; in [3] (setting [10]), 79%; in [3] (setting [11]), 3%. For the same compound, the CI was 86% in data set [4] (setting [10]) and 2% in data set [4] (setting [11]). Also, in data set [1] (drug 10 μg/ml), the “CI value compared with DMQ, in words” value was “significantly lower than DMQ”. For the same compound, the “cytotoxicity compared with DMQ, in words” value in the data set on human tumor cell lines is listed as “less cytotoxic”. In addition, the “cytotoxicity in combination with L-ascorbic acid or D-isoascorbic acid, in words” value in the data set on human tumor cell lines is given as “greatly augmented; also recorded: act synergistically”. In data set [7], the “hydrophobicity, in words” value is given as “a certain degree of hydrophobicity”.
Regarding `COc1cc(O)c(SCCC(=O)O)c(OC)c1O` [DMQ-MP, 2,6-dimethoxyhydroquinone-3-mercaptopropionic acid], the “solubility relative to DMQ (times higher)” value in “Solubility in H2O” is reported as “about 70 times”. Further, the “water-solubility, in words” value in “Solubility in H2O” is on record as “a lot more water-soluble than DMQ; also recorded: significantly improved water-solubility in comparison with DMQ”. The compound also came in with a solubility in the data set “Solubility in H2O” of 5.33 mg/mL (≈ 19.4 mM). For the same compound, in data set [1] (drug 10 μg/ml, no L-ascorbate), the “Cytotoxicity index (CI)” value was found to be 43.5%. The CI was found to be 78% in [1] (setting [12]); 17% in data set [1] (setting [13]); 79% in data set [2] (setting [12]); 10% in [2] (setting [13]); 88% in [3] (setting [12]); 11% in [3] (setting [13]). For the same compound, the CI is reported as 77% in data set [4] (setting [12]) and 13% in data set [4] (setting [13]). The “CI value compared with DMQ, in words” value in [1] (drug 10 μg/ml) is “significantly lower than DMQ”. Further, the cytotoxicity at 100 µg/mL in the data set on human tumor cell lines (four human tumor cell lines) is below 25%. For the same compound, the “CI values, summary” value in the data set with human tumor cell lines (DMQ-MP 1 μg/ml in combination with D-isoascorbic acid 100 μg/ml, four human tumor cell lines, 5760 min) is 77-88%. For the same compound, the “cytotoxicity compared with DMQ, in words” value with human tumor cell lines was “less cytotoxic”. Besides, the “cytotoxicity in combination with L-ascorbic acid or D-isoascorbic acid, in words” value in the data set on human tumor cell lines is “greatly augmented; also recorded: act synergistically”. In addition, the “hydrophobicity, in words” value in data set [7] was “a certain degree of hydrophobicity”.
For the compound `O=C1O[C@H]([C@@H](O)CO)C(O)=C1O` [L-ascorbate, reference compound], the CI in [1] (setting [14]) was found to be 5%; in data set [2] (setting [14]), 0.4%; in data set [3] (setting [14]), 2%; in data set [4] (setting [14]) it was 9%. The “concentration of L-ascorbate in the human body” value in data set [8] is at most 1000 µM.

In general, solubility refers to the concentration that dissolves in the medium under given conditions. Higher therefore signals a readily soluble substance.
